Test results: ChEMBL document CHEMBL3396982, “Design and synthesis of a novel series of [1-(4-hydroxy-benzyl)-1H-indol-5-yloxy]-acetic acid compounds as potent, selective, thyroid hormone receptor β agonists” (Bioorg Med Chem Lett, 2015)

Experiments:
[1] = biological target: T1, Thyroid hormone receptor alpha (Homo sapiens, UniProt P10827); assay: Displacement of [125I]-L-3,5,3'-triiodothyronine from human TRalpha expressed in human Hela cell lysate measured after overnight incubation by competition binding assays; type: cell-free
T1 sequence (P10827 whole entry): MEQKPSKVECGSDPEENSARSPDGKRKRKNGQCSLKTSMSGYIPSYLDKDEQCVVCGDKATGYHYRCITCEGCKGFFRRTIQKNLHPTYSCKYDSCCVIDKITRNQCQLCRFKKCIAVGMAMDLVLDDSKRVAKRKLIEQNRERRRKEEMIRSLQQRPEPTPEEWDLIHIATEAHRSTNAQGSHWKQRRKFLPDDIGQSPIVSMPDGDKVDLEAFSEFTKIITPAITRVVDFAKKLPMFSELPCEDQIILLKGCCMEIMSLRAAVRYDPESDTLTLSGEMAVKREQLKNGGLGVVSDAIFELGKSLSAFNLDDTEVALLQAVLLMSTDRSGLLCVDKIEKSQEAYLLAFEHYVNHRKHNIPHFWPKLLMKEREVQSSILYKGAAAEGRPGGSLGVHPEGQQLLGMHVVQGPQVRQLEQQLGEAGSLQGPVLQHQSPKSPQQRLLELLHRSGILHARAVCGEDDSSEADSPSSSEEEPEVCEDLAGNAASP

[2] = biological target: T2, Thyroid hormone receptor beta (Homo sapiens, UniProt P10828); assay: Displacement of [125I]-L-3,5,3'-triiodothyronine from human TRbeta expressed in human Hela cell lysate measured after overnight incubation by competition binding assays; type: cell-free
T2 sequence (P10828 whole entry): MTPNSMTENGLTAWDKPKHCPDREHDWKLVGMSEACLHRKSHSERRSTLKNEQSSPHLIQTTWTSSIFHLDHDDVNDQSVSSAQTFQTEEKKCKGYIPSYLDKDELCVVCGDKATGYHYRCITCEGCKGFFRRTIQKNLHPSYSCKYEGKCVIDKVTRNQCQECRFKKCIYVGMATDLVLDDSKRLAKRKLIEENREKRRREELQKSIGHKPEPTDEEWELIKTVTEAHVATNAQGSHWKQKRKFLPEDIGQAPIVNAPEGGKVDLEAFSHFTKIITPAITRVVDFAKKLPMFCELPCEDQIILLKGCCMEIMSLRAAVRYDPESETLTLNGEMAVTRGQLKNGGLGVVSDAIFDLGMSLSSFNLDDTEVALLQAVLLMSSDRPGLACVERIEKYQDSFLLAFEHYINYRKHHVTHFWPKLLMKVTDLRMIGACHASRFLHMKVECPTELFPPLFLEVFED

[3] = system: Rattus norvegicus; assay: Decrease in triglyceride level in fructose-fed Sprague-Dawley rat model of dyslipidemia at 0.3 mg/kg, po qd through oral gavage by size exclusion chromatography (Rvb =296 +/- 20 mg/dL); type: functional
[4] = system: Rattus norvegicus; assay: Increase in HDL level in fructose-fed Sprague-Dawley rat model of dyslipidemia at 3 mg/kg, po qd through oral gavage by size exclusion chromatography relative to vehicle-treated control; type: functional
[5] = system: Rattus norvegicus; assay: Decrease in triglyceride level in fructose-fed Sprague-Dawley rat model of dyslipidemia at 10 mg/kg, po qd through oral gavage by size exclusion chromatography (Rvb =296 +/- 20 mg/dL); type: functional
[6] = system: Rattus norvegicus; assay: Increase in HDL level in fructose-fed Sprague-Dawley rat model of dyslipidemia at 0.1 mg/kg, po qd through oral gavage by size exclusion chromatography relative to vehicle-treated control; type: functional
[7] = system: Rattus norvegicus; assay: Decrease in triglyceride level in fructose-fed Sprague-Dawley rat model of dyslipidemia at 0.1 mg/kg, po qd through oral gavage by size exclusion chromatography (Rvb =296 +/- 20 mg/dL); type: functional
[8] = system: Rattus norvegicus; assay: Increase in HDL level in fructose-fed Sprague-Dawley rat model of dyslipidemia at 0.3 mg/kg, po qd through oral gavage by size exclusion chromatography relative to vehicle-treated control; type: functional
[9] = system: Rattus norvegicus; assay: Decrease in triglyceride level in fructose-fed Sprague-Dawley rat model of dyslipidemia at 1 mg/kg, po qd through oral gavage by size exclusion chromatography (Rvb =296 +/- 20 mg/dL); type: functional
[10] = system: Rattus norvegicus; assay: Increase in HDL level in fructose-fed Sprague-Dawley rat model of dyslipidemia at 10 mg/kg, po qd through oral gavage by size exclusion chromatography relative to vehicle-treated control; type: functional
[11] = system: Rattus norvegicus; assay: Toxicity in fructose-fed Sprague-Dawley rat model of dyslipidemia assessed as effect on food intake at 0.1 to 10 mg/kg, po qd through oral gavage; type: organism-based; design: dose 0.1-10 mg/kg, route oral; details: in vivo
[12] = system: Rattus norvegicus; assay: Decrease in triglyceride level in fructose-fed Sprague-Dawley rat model of dyslipidemia at 3 mg/kg, po qd through oral gavage by size exclusion chromatography (Rvb =296 +/- 20 mg/dL); type: functional
[13] = system: Rattus norvegicus; assay: Increase in HDL level in fructose-fed Sprague-Dawley rat model of dyslipidemia at 1 mg/kg, po qd through oral gavage by size exclusion chromatography relative to vehicle-treated control; type: functional
[14] = biological target: T1, Thyroid hormone receptor alpha; assay: Agonist activity at TRalpha (unknown origin) expressed in human HuH7 cells after 24 hrs by Gal4 CTF cell-based assay; design: species or system Huh-7
[15] = biological target: T2, Thyroid hormone receptor beta; assay: Agonist activity at TRbeta (unknown origin) expressed in human HuH7 cells after 24 hrs by Gal4 CTF cell-based assay; design: species or system Huh-7

Compound | Ki [1] | Ki [2] | also measured
Cc1cc2cc(OCC(=O)O)ccc2n1Cc1ccc(O)c(C(C)C)c1 | 16.3 nM | 1.12 nM | –
Cc1cn(Cc2ccc(O)c(C(C)C)c2)c2ccc(OCC(=O)O)cc12 | 7.74 nM | 0.38 nM | Activity [3]: 214 mg/dL; Activity [4]: 42%; Activity [5]: 106 mg/dL; Activity [6]: 22%; Activity [7]: 204 mg/dL; Activity [8]: 39%; Activity [9]: 177 mg/dL; Activity [10]: 35%; Activity [11]: Non-toxic; Activity [12]: 149 mg/dL; Activity [13]: 55%
CC(C)c1cc(Cn2ccc3cc(OCC(=O)O)cc(Cl)c32)ccc1O | 0.35 nM | 0.07 nM | –
Cc1cn(Cc2ccc(O)c(C(C)C)c2)c2c(C)cc(OCC(=O)O)cc12 | 2.77 nM | 0.18 nM | –
Cc1cn(Cc2ccc(O)c(C(C)(C)C)c2)c2ccc(OCC(=O)O)cc12 | 9.98 nM | 0.3 nM | –
Cc1cn(Cc2ccc(O)c(CC3CCCCC3)c2)c2ccc(OCC(=O)O)cc12 | 46.6 nM | 1.11 nM | –

The next lines start with results.

Ki [1] | Ki [2] | Compound | also measured
13.5 nM | 1.04 nM | CC(C)c1cc(Cn2ccc3cc(OCC(=O)O)ccc32)ccc1O | –
1.09 nM | 0.26 nM | Cc1cc(OCC(=O)O)cc2ccn(Cc3ccc(O)c(C(C)C)c3)c12 | –
2.05 nM | 0.14 nM | Cc1cc(OCC(=O)O)cc2cc(C)n(Cc3ccc(O)c(C(C)C)c3)c12 | –
0.38 nM | 0.04 nM | Cc1cc2cc(OCC(=O)O)cc(Cl)c2n1Cc1ccc(O)c(C(C)C)c1 | –
0.51 nM | 0.09 nM | Cc1cn(Cc2ccc(O)c(C(C)C)c2)c2c(Cl)cc(OCC(=O)O)cc12 | –
36.5 nM | 0.54 nM | Cc1cn(Cc2ccc(O)c(Cc3ccccc3)c2)c2ccc(OCC(=O)O)cc12 | EC50 [14]: 2470 nM; EC50 [15]: 406 nM
32.3 nM | 0.64 nM | Cc1cn(Cc2ccc(O)c(C3CCCC3)c2)c2ccc(OCC(=O)O)cc12 | –
89.9 nM | 3.14 nM | Cc1cn(Cc2ccc(O)c(-c3ccccc3)c2)c2ccc(OCC(=O)O)cc12 | –
200 nM | 8.04 nM | Cc1cn(Cc2ccc(O)c(C3CCCCC3)c2)c2ccc(OCC(=O)O)cc12 | –
